SMILES strings stand for the structures.

The source of these data is paper PMC6353801, “Enhanced Anti-diabetic Effect of Berberine Combined With Timosaponin B2 in Goto-Kakizaki Rats, Associated With Increased Variety and Exposure of Effective Substances Through Intestinal Absorption” (Frontiers in Pharmacology, 2019).

For one data set, the system named is GK rats. The data set can be described thus: Oral glucose tolerance test (OGTT) in GK rats on day 28. The format is in vivo, rat. The settings on record: after 4 weeks of treatment, glucose 2 g/kg oral. On the procedure:
(§1) Four-week-old male GK rats were fed a high-fat diet, and age-matched non-diabetic Wistar rats were fed standard chow as the control group. Under these dietary conditions, blood glucose was estimated each week for 7 weeks in 12-h fasted rats using a portable glucometer (One Touch Sure Step Meter, Johnson & Johnson, United States) by drawing the blood from the tail vein. GK rats with fasting blood glucose levels (FBG) above 16.7 mM were considered as diabetic rats, and only uniformly diabetic rats were used in this study. […] All the drugs were suspended in 0.5% carboxymethylcellulose sodium (CMC-Na) solution for oral gavage (10 ml/kg) once per day (at 9:00) for 6 weeks. Simultaneously, the Wistar and vehicle groups received vehicle over the treatment period. Food consumption and body weight were measured every week throughout the experimental periods. Non-fasting blood glucose (NFBG) levels were determined by collecting blood samples from the tail vein (at 9:00), and FBG levels were determined after a 6-h fast (at 15:00) on days 0, 7, 14, 21, and 42. On day 28, an oral glucose tolerance test (OGTT) was performed after an overnight fast. […] On day 42, the rats were anesthetized with urethane (1.4 g/kg, dissolved in saline) after an overnight fast and were sacrificed to collect the liver, kidney, heart, and spleen. The organs were weighed after washing with saline and drying to calculate the organ coefficient, namely, the ratio between the weight of organs and the body in each rat.

Data set [1] is described as follows: Body weight, food intake, organ coefficients and side effects in GK rats. The format is in vivo, rat. On the procedure: as §1
Data set [2] is described as follows: Transport in Caco-2 cells. The settings on record: human. The format is in vitro ADME, human. On the procedure:
The culture medium was changed every other day for the first 7 days and then daily for the next 14 days. […] Prior to the transport experiments, the cell monolayers were washed three times with HBSS at 37°C. […] At the same time, the corresponding opposite side was filled with medium as the receiving chamber. After incubation for 30, 60, 90, and 120 min, 250-μl aliquots of the medium was taken from the receiving chamber at each time point, and prepared for analysis by HPLC–MS/MS. […] where (ΔQ/Δt) is the linear slope of the drug concentration in the receptor chamber over time, A represents the surface area of the membrane (1.12 cm^2), and C0 is the initial concentration of drug in the donor chamber. The efflux ratio (ERpermeability) for BL to AP and AP to BL transport was defined by the following equation: […] where Papp (BL–AP) and Papp (AP–BL) are the apparent permeability of drugs from the basolateral (BL) to apical (AP) and AP to BL sides of the monolayer, respectively.

For data set [3] the following is noted: usually in various species; ref Liu et al., 2016; cited from earlier work.
A further data set has as its system primary rat hepatocytes. The data set can be described thus: Hepatic metabolism in primary hepatocytes. The settings on record: 3 h.
[4] abbreviates: Caco-2, no inhibitor, digoxin 10 μM, TB-2 5 μM, BBR 10 μM, n = 3.

As usually defined, the Papp A→B is how fast a substance crosses the layer from the apical side. A high value points to fast passage. As a reminder, the Papp B→A is how fast a substance crosses the layer from the basolateral side. One may read the bioavailability as the share of a dose that reaches the circulation, judged against a reference dose that is usually intravenous. Take `COc1ccc2cc3[n+](cc2c1OC)CCc1cc2c(cc1-3)OCO2` [BBR, berberine]: in the data set with GK rats, the “decrease in the AUC of blood glucose in OGTT vs vehicle” value is reported as “didn’t significantly decrease” and the “decrease of blood glucose levels in OGTT at 30 min vs vehicle” value turned out to be 24%. The “effect on body weight or food consumption vs vehicle” value in data set [1] (6-week oral treatment) is listed as “no effect”. For the same compound, in data set [1] (day 42), the “effect on organ coefficients (liver and kidney) vs vehicle” value was “limited”. The efflux ratio at 120 min in data set [2] (Caco-2, Caco-2, no inhibitor, Papp (BL−AP)/Papp (AP−BL), read-out: ERpermeability (efflux ratio)) was 71.4. In addition, in data set [2] (setting [4]), the Papp A→B at 120 min is 0.38 ± 0.11 nm/s and the Papp B→A at 120 min amounted to 27.1 ± 3.55 nm/s. Also, the bioavailability in data set [3] is on record as below 1%. In addition, in the data set on primary rat hepatocytes (BBR 1 μM, 37°C), the “share of compound disappearing after incubation” value is “approximately 80%”. Moreover, the “effect on TB-2 levels after incubation” value in the data set on primary rat hepatocytes (TB-2 1 μM, BBR (5 μM, 30 μM)) is “no improvement”.
